Laboratory results reported in PMC6237811, “MutT homologue 1 (MTH1) catalyzes the hydrolysis of mutagenic O6-methyl-dGTP” (Nucleic Acids Research, 2018).

Key:
Assay type in all cases: biochemical
[1] = target: T1, human MTH1 (hMTH1, NUDT1) (Homo sapiens, UniProt P36639); assay: Michaelis-Menten kinetics of hydrolysis by purified MTH1 (PPiLight)
[2] = target: T2, zebrafish MTH1 (zfMTH1) (Danio rerio, UniProt Q7ZWC3); assay: hydrolysis by purified zfMTH1, malachite green and PPiLight assays
T2 construct: gene nudt1

[3] = target: T1, human MTH1 (hMTH1, NUDT1); assay: Michaelis-Menten kinetics of hydrolysis by purified MTH1 (PPiLight); HPLC and LC-MS of product
[4] = target: Arabidopsis thaliana NUDT1 (atNUDT1, atNUDX1) (Arabidopsis thaliana, UniProt Q9CA40); assay: hydrolysis by […] purified enzyme, PPiLight assay, […] substrate
[5] = target: T3, mouse MTH1 (mmMTH1, mmNUDT1) (Mus musculus, UniProt P53368); assay: as above
T3 construct: gene Nudt1

[6] = target: T4, rat MTH1 (rnMTH1, rnNUDT1) (Rattus norvegicus, UniProt P53369); assay: as above
T4 construct: gene Nudt1

Arabidopsis thaliana NUDT1 (atNUDT1, atNUDX1), sequence (Q9CA40 2-147): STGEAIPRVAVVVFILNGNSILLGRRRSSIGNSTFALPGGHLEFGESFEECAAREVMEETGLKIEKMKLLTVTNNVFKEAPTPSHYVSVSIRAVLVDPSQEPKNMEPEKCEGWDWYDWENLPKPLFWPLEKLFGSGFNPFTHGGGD
T2 sequence (Q7ZWC3 whole entry): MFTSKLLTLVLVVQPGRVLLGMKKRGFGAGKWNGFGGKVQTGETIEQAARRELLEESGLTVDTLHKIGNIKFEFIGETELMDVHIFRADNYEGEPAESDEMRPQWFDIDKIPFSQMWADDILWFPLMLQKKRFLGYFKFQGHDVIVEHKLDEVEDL

SMILES | Km [1] [µM] | hydrolysis by purified zfMTH1, malachite green and PPiLight assays [2] | Km [3] [µM] | hydrolysis by 1.5 nM purified enzyme, PPiLight assay, 75 μM substrate [4] | hydrolysis by 1.5 nM purified enzyme, PPiLight assay, 75 μM substrate [5] | hydrolysis by 1.5 nM purified enzyme, PPiLight assay, 75 μM substrate [6]
COc1nc(N)nc2c1ncn2[C@@H]1O[C@H](COP(=O)(O)OP(=O)(O)OP(=O)(O)O)[C@@H](O)[C@H]1O [O6-methyl-GTP] | 236 ± 44 | – | – | – | – | –
COc1nc(N)nc2c1ncn2[C@H]1C[C@H](O)[C@@H](COP(=O)(O)OP(=O)(O)OP(=O)(O)O)O1 [O6-methyl-dGTP] | – | The zfMTH1 enzyme displays considerable activity with O6-methyl-dGTP with a clear preference over dGTP | 15.6 ± 0.2 | MTH1 homologues from all tested species but E. coli were found to catalyze the hydrolysis of O6-methyl-dGTP | MTH1 homologues from all tested species but E. coli were found to catalyze the hydrolysis of O6-methyl-dGTP | MTH1 homologues from all tested species but E. coli were found to catalyze the hydrolysis of O6-methyl-dGTP
